Publication PMC5290327, “SC83288 is a clinical development candidate for the treatment of severe malaria” (Nature Communications, 2017)
In brackets after ≈: the same amount, converted by molar mass. Read-outs that look alike come from different tables or passages of the source.

Columns and labels:
P. falciparum strain 3D7 = experiment: Growth inhibition assay; assay type: cell-based; settings: Plasmodium falciparum
[1] = tested on: P. falciparum strain FCR3; experiment: Growth inhibition assay; assay type: cell-based; settings: Plasmodium falciparum
P. falciparum strain 7G8 = experiment: microbe, parasite or virus in culture; assay type: cell-based; settings: Plasmodium falciparum
P. falciparum strain K1 = experiment: microbe, parasite or virus in culture; assay type: cell-based; settings: Plasmodium falciparum
P. falciparum strain Dd2 = experiment: Growth inhibition assay, asexual blood stages; assay type: cell-based, Plasmodium falciparum
P. falciparum strain D10 = experiment: Growth inhibition assay; assay type: cell-based; settings: Plasmodium falciparum
[2] = tested on: P. falciparum strain Thai19; experiment: Growth inhibition assay; assay type: cell-based; settings: Plasmodium falciparum
[3] = tested on: Dd2 P. falciparum parasites; experiment: In vitro parasite reduction ratio assay (Sanz protocol); assay type: cell-based, Plasmodium falciparum
[4] = In vitro metabolism in liver microsomes; settings: Monkey
[5] = In vitro metabolism in liver microsomes; settings: Dog
[6] = In vitro metabolism in liver microsomes; settings: Human
[7] = In vitro metabolism in liver microsomes; settings: Rat
[8] = In vitro metabolism in liver microsomes; settings: Mouse
CACO 2 cells = experiment: Permeability assay; assay type: in vitro ADME; settings: Supplementary Table 2
Protocol: The study was conducted by Cyprotex (Macclesfield, United Kingdom). CACO 2 cells (Sigma-Aldrich, catalogue: 86010202) were seeded on Millipore Millicell plates and formed a confluent monolayer over 20 days before the experiment. On day 20, the tested compounds at a final concentration of 10 μM were added to the apical side of the membrane. The transport of the compound across the monolayer was monitored over a 2 h period by liquid chromatography (LC)–MS/MS quantification. The permeability coefficient (Papp) was calculated from the following equation: [drawing 1] , where dQ/dt is the rate of permeation of the drug across the cells, C0 the donor compartment concentration at time zero and A the area of the cell monolayer. C0 was obtained from analysis of the dosing solution at the start of the experiment.

Plasmodium berghei = experiment: Rodent malaria model; assay type: in vivo; settings: P. berghei, 50 mg kg-1 i.p. 1x4 days
Protocol: This was the case for both an in vivo 4 day dosing regimen of 30 mg kg^−1 per day and an ex vivo one-cycle growth inhibition assay. […] Differential therapeutic efficacy in various rodent model systems is a well-established phenomenon and is typically associated with charged compounds, such as positively charged amidines and negatively charged phosphoric acid or carboxylic acid containing drugs. The phenomenon is explained based on selective uptake of charged compounds through parasite-induced channels, termed new permeation pathways, in the host cell plasma membrane and species-specific characteristics of the new permeation pathways.

Solubility in water = settings: Supplementary Table 2
Plasmodium vinckei = experiment: Rodent malaria model; assay type: in vivo; settings: P. vinckei, 20 mg kg-1 i.p. 1x4 days
Text: The two SC compounds were also active in the Plasmodium vinckei rodent malaria model system.

[9] = Plasmodium falciparum, DD2, strain Dd2, Supplementary Table 3
[10] = Supplementary Table 2, read-out: In vitro IC50

Q: Which results are given for `CCN(CC)Cc1cc(Nc2ccnc3cc(Cl)ccc23)ccc1O` [Amodiaquin]?
A: IC50 (P. falciparum strain 3D7): 8 ± 1 nM; IC50 [1]: 8 ± 0.4 nM; IC50 (P. falciparum strain 7G8): 7 ± 2 nM; IC50 (P. falciparum strain K1): 9 ± 1 nM; IC50 (P. falciparum strain Dd2; [9]): 7 ± 1 nM; IC50 (P. falciparum strain D10): 7 ± 2 nM; IC50 [2]: 9 ± 1 nM

Q: With `C[C@@H]1CC[C@H]2[C@@H](C)C(=O)O[C@@H]3O[C@@]4(C)CC[C@@H]1[C@]32OO4` [Artemisinin] as the compound, how does the “In vitro PCT99.9%” value ([3]; 10 times IC50, Dd2) read?
A: The value was 21 ± 3 h.

Q: What about the “In vitro lag phase” value ([3]; 10 times IC50, Dd2) of the same compound?
A: The value was “zero”.

Q: And the “In vitro logPRR” value ([3]; 10 times IC50, Dd2, over 48 h)?
A: The value was 4.5±2.

Q: And the IC50 (P. falciparum strain 3D7)?
A: Its IC50 is 8 ± 0.3 nM.

Q: And the IC50 [1]?
A: The IC50 was 5 ± 1 nM.

Q: What about the IC50 (P. falciparum strain 7G8) of the same compound?
A: Its IC50 is 1 ± 0.3 nM.

Q: And the IC50 (P. falciparum strain K1)?
A: Its IC50 is 3 ± 1 nM.

Q: What about the IC50 (P. falciparum strain Dd2; [9]) of the same compound?
A: Its IC50 is 2 ± 0.1 nM.

Q: And the IC50 (P. falciparum strain D10)?
A: Its IC50 is 9 ± 0.4 nM.

Q: What about the IC50 [2] of the same compound?
A: Its IC50 is 3 ± 1 nM.

Q: With `CCN(CC)CCCC(C)Nc1ccnc2cc(Cl)ccc12` (centres unmarked) [Chloroquine] as the compound, how does the IC50 (P. falciparum strain 3D7) read?
A: The IC50 was 3 nM.

Q: And the IC50 [1]?
A: The IC50 was 25 ± 40 nM.

Q: And the IC50 (P. falciparum strain 7G8)?
A: The IC50 was 30 ± 70 nM.

Q: And the IC50 (P. falciparum strain K1)?
A: Its IC50 is 70 ± 14 nM.

Q: And the IC50 (P. falciparum strain D10)?
A: Its IC50 is 11 ± 30 nM.

Q: And the IC50 [2]?
A: The IC50 was 74 ± 17 nM.

Q: With `OC(c1cc(C(F)(F)F)nc2c(C(F)(F)F)cccc12)C1CCCCN1` (centres unmarked) [Mefloquine] as the compound, how does the IC50 (P. falciparum strain 3D7) read?
A: The IC50 was 0.04 ± 0.1 nM.

Q: What about the IC50 [1] of the same compound?
A: Its IC50 is 0.04 nM.

Q: What about the IC50 (P. falciparum strain 7G8) of the same compound?
A: The IC50 was 0.2 ± 0.1 nM.

Q: What about the IC50 (P. falciparum strain K1) of the same compound?
A: The IC50 was 0.01 nM.

Q: And the IC50 (P. falciparum strain Dd2; [9])?
A: The IC50 was 0.04 ± 0.1 nM.

Q: And the IC50 (P. falciparum strain D10)?
A: Its IC50 is 0.01 nM.

Q: What about the IC50 [2] of the same compound?
A: The IC50 was 0.01 nM.

Q: With `N=C(c1cccc(NC(=O)Nc2ccc(S(=O)(=O)NCc3ccc(S(N)(=O)=O)cc3)cc2)c1)N1CCNCC1` [Metabolite 1] as the compound, how does the “Share of metabolite from the total combined metabolite peak area” value (from here on “Share of metabolite”) ([4]; SC81458 metabolites) read?
A: The value was 10.5%.

Q: What about the “Share of metabolite” value ([4]; SC83288 metabolites) of the same compound?
A: Its value is 16.2%.

Q: What about the “Share of metabolite” value ([5]; SC81458 metabolites) of the same compound?
A: Its value is 63.6%.

Q: What about the “Share of metabolite” value ([5]; SC83288 metabolites) of the same compound?
A: The value was 87.3%.

Q: And the IC50 (P. falciparum strain Dd2; major metabolite, read-out: IC50, antiplasmodial activity in vitro)?
A: The IC50 was 65 nM.

Q: And the “Share of metabolite” value ([6]; SC81458 metabolites)?
A: Its value is 7%.

Q: What about the “Share of metabolite” value ([6]; SC83288 metabolites) of the same compound?
A: The value was 13.3%.

Q: And the “Share of metabolite” value ([7]; SC81458 metabolites)?
A: Its value is 27.8%.

Q: And the “Share of metabolite” value ([7]; SC83288 metabolites)?
A: Its value is 19.7%.

Q: And the “Share of metabolite” value ([8]; SC81458 metabolites)?
A: The value was 22.2%.

Q: And the “Share of metabolite” value ([8]; SC83288 metabolites)?
A: Its value is 5%.

Q: Which results are given for `CCc1nc(N)nc(N)c1-c1ccc(Cl)cc1` [Pyrimethamine]?
A: IC50 (P. falciparum strain 3D7): 16 ± 3 nM; IC50 [1]: 31 ± 8 nM; IC50 (P. falciparum strain 7G8): > 15000 nM; IC50 (P. falciparum strain K1): > 15000 nM; IC50 (P. falciparum strain D10): 11 ± 2 nM; IC50 [2]: > 15000 nM

Q: Which results are given for `C=C[C@H]1C[N@@]2CC[C@H]1C[C@@H]2[C@@H](O)c1ccnc2ccc(OC)cc12` [Quinidine]?
A: IC50 (P. falciparum strain 3D7): 14 ± 1 nM; IC50 [1]: 32 ± 6 nM; IC50 (P. falciparum strain 7G8): 16 ± 4 nM; IC50 (P. falciparum strain K1): 12 ± 3 nM; IC50 (P. falciparum strain Dd2; [9]): 15 ± 1 nM; IC50 (P. falciparum strain D10): 16 ± 1 nM; IC50 [2]: 22 ± 5 nM

Q: Which IC50 (P. falciparum strain 3D7) does the source give for `C=C[C@H]1C[N@@]2CC[C@H]1C[C@H]2[C@H](O)c1ccnc2ccc(OC)cc12` [Quinine] here?
A: The IC50 was 14 ± 20 nM.

Q: What about the IC50 [1] of the same compound?
A: Its IC50 is 182 ± 27 nM.

Q: What about the IC50 (P. falciparum strain 7G8) of the same compound?
A: The IC50 was 70 ± 17 nM.

Q: And the IC50 (P. falciparum strain K1)?
A: The IC50 was 46 ± 40 nM.

Q: And the IC50 (P. falciparum strain Dd2; [9])?
A: Its IC50 is 100 ± 10 nM.

Q: What about the IC50 (P. falciparum strain D10) of the same compound?
A: The IC50 was 58 ± 50 nM.

Q: And the IC50 [2]?
A: The IC50 was 62 ± 10 nM.

Q: Which results are given for `N=C(N)c1cccc(NC(=O)Nc2ccc(S(=O)(=O)NCc3ccccc3)cc2)c1` [SC08165]?
A: Papp (CACO 2 cells): 1.22 10-6 cm s-1; IC50 (P. falciparum strain Dd2; [10]): 134 nM; Outcome (Plasmodium berghei): inactive

Q: With `N=C(N)c1cccc(NC(=O)Nc2ccc(S(=O)(=O)c3ccc(Br)cc3)cc2)c1` [SC48443] as the compound, how does the IC50 (P. falciparum strain Dd2; [10]) read?
A: The IC50 was 63.9 nM.

Q: And the “Solubility in H2O” value (Solubility in water)?
A: Its value is 100 µg/mL (≈ 211 µM).

Q: Which IC50 (P. falciparum strain Dd2; Supplementary Table 8, read-out: In vitro IC50) does the source give for `N=C(c1cccc(NC(=O)Nc2ccc(S(=O)(=O)c3ccc(Br)cc3)cc2)c1)N1CCC(O)CC1` [SC77215] here?
A: Its IC50 is 68 nM.

Q: What about the “Outcome: decrease of parasitemia” value (Plasmodium vinckei) of the same compound?
A: The value was 45%.

Q: What does the source list for `N=C(c1cccc(NC(=O)Nc2ccc(S(=O)(=O)NCc3ccc(S(N)(=O)=O)cc3)cc2)c1)N1CCC(O)CC1` [SC77225]?
A: Papp (CACO 2 cells): 0.38 10-6 cm s-1; IC50 (P. falciparum strain Dd2; [10]): 165 nM

Q: What does the source list for `N=C(c1cccc(NC(=O)Nc2ccc(S(=O)(=O)NCc3ccc(S(N)(=O)=O)cc3)cc2)c1)N1CCN(CCO)CC1` [SC81452]?
A: IC50 (P. falciparum strain Dd2; [10]): 100 nM; Solubility in H2O (Solubility in water): 32 µg/mL (≈ 52 µM)

Q: Which “Share of metabolite” value ([4]; SC81458 metabolites) does the source give for `CCCCN1CCN(C(=N)c2cccc(NC(=O)Nc3ccc(S(N)(=O)=O)cc3)c2)CC1` [SC81458 M5] here?
A: Its value is 0.1%.

Q: And the “Share of metabolite” value ([5]; SC81458 metabolites)?
A: Its value is 3.1%.

Q: And the “Share of metabolite” value ([6]; SC81458 metabolites)?
A: The value was 51.4%.

Q: What about the “Share of metabolite” value ([7]; SC81458 metabolites) of the same compound?
A: The value was 23.3%.

Q: What about the “Share of metabolite” value ([8]; SC81458 metabolites) of the same compound?
A: The value was 49%.
